Literature values, collected in patent publication US7419669B2, “Peptide epitopes common to antigens of the same multigene family” (Institut Gustave Roussy, priority 2002, dated 2008).

Key:
[1] = system: tumor cells; conditions: MICONNET et al., 2000; cited from earlier work
[2] = molecular target: HLA-B*3701 allele of MHC-I (Homo sapiens, UniProt P01889, A329T/A93T/A95T/C349S/D138N/D201E/D98Y/E176V/E187T/E204Q/E69T/G107R/H137Y/K202T/L119I/N104T/N87E/Q94N/R106L/R155S/R180D/S101D/S121R/V306I/Y123S/Y140F/Y33H/Y91S); conditions: TANZARELLA et al., 1999; cited from earlier work

| Sequence | processing of the epitope by tumor cells [1] | binding to HLA-B*3701 [2] |
| --- | --- | --- |
| FLWGPRALV | not efficiently processed by tumor cells | – |
| REPVTKAEML (listed as Homo sapiens) | – | binds to the HLA-B*3701 allele of MHC-I |
